Assay results published in paper PMC3548330 (Bioconjugate chemistry, 2012).
Converted amounts (≈) assume the structure as drawn. Where two headings read alike, the source gives them in different places.

Tests used:
Ag85C = Ag85C (Mycobacterium tuberculosis, UniProt P9WQN9); assay: 4-methylumbelliferyl butyrate; format: biochemical
Mycobacterium aurum = details: surrogate for Mycobacterium tuberculosis; cited from earlier work
M. smegmatis = details: cited from earlier work
M. tuberculosis = details: cited from earlier work
[1] = tested on: M. tuberculosis inside macrophages; details: 100 µM concentration; cited from earlier work
synthesis of TDM = details: cited from earlier work
Ag85s = details: screening of the NIH Clinical Collection; cited from earlier work
[2] = 600 nM Ag85C, 10 mM trehalose, 100 µM 4-MUB, 37 °C, inhibitor 20-320 µM

Ag85C, sequence (P9WQN9 46-340): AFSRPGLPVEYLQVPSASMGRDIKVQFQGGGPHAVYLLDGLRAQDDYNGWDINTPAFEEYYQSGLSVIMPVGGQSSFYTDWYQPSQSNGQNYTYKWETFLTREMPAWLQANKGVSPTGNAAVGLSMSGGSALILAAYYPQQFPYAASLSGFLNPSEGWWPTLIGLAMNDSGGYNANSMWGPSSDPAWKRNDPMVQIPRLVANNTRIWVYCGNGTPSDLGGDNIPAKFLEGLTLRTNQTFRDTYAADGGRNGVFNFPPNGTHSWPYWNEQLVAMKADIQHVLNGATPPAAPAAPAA

CO[C@H]1O[C@H](CSCC(=O)Nc2sc3c(c2C#N)CCCC3)[C@@H](O)[C@@H]1O [Compound 13b, N-(3-cyano-4,5,6,7-tetrahydrobenzo[b]thiophen-2-yl)-2-(methyl 5-thio-α-D-arabinofuranoside-5-S-yl)acetamide]
Ki (Ag85C; [2]): 34.8 µM

[N-]=[N+]=NC[C@H]1O[C@H](O[C@H]2O[C@H](CO)[C@@H](O)[C@H](O)[C@H]2O)[C@H](O)[C@@H](O)[C@@H]1O [6-azido-6-deoxytrehalose]
growth inhibition of Mycobacterium aurum (Mycobacterium aurum): completely inhibit the growth

CCOC(=O)c1c(NC(=O)C(CC)SC[C@H]2O[C@H](OC)[C@@H](O)[C@@H]2O)sc2c1CCCC2 (stereo partly drawn) [Compound 13c, Ethyl 2-(methyl 5-thio-α-D-arabinofuranoside-5-S-yl)butamido-4,5,6,7-tetrahydrobenzo[b]thiophene-3-carboxylate]
Ki (Ag85C; [2]): 71 µM

CCOC(=O)c1c(NC(=O)CSCC2OC(OC)C(O)C2O)sc2c1CCCC2 [Compound 13a, Ethyl 2-(methyl 5-thio-α-D-arabinofuranoside-5-S-yl)acetamido-4,5,6,7-tetrahydrobenzo[b]thiophene-3-carboxylate]
Ki (Ag85C; [2]): 18.2 µM

N#Cc1c(N)sc2c1CCCC2 [Compound 1b, 2-Amino-4,5,6,7-tetrahydrobenzo[b]thiophene-3-carbonitrile]
MIC (M. smegmatis): 50 to 100 µg/mL

COC1O[C@H](CSCCn2c(=O)[nH]c3sc4c(c3c2=O)CCCC4)[C@@H](O)[C@@H]1O (stereo partly drawn) [Compound 14, Methyl 5-S-[2-(2,4-dioxo-1,4,5,6,7,8-hexahydro[1]benzothieno[2,3-d]-pyrimidin-3(2H)-yl)ethyl]-5-thioarabinofuranoside]
Ki (Ag85C): 47.1 µM

CCCC1CCc2c(sc(N)c2C#N)C1 (centres unmarked) [Compound I3-AG85, 2-amino-6-propyl-4,5,6,7-tetrahydro-1-benzothiophene-3-carbonitrile]
concentration inhibiting growth of MDR and XDR strains (M. tuberculosis; 7 MDR and 3 XDR M. tuberculosis strains): ≤ 200 µM | MIC (M. tuberculosis; M. tuberculosis): 100 µg/mL (≈ 454 µM) | survival of M. tuberculosis inside macrophages [1]: reduced survival | inhibition of the synthesis of TDM (synthesis of TDM): inhibit the synthesis of TDM

O=c1c2ccccc2[se]n1-c1ccccc1 [ebselen]
inhibition of Ag85s (Ag85s): nM inhibitor
